Laboratory results published in the supplement of paper PMC11451515.

Assays:
Details in all cases: 48 h
SEM cells [1] = experiment: cell viability relative to DMSO control; higher = less cytotoxic
Summary of the method: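 In 1536-well plates, 5 μl of leukemia cells were seeded per well: 500 cells/well for NOMO1 or SEM and 1000 cells/well for P12-Ichikawa. Each line had first been adapted for at least four passages in each medium. Library compounds in DMSO were pin-dosed at 11 threefold concentrations between 47 μM and 0.79 nM, and CellTiter-Glo One luminescence was read after 48 h at 37°C. Viability is a per-plate percentage relative to DMSO wells, with cell-free wells as background.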

NOMO1 = experiment: AUC of viability dose-response curve (% viability x log10 dose units); higher = less sensitive
Summary of the method: (§1)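 Leukemia cells adapted to each medium (500 or 1000 cells/well, 1536-well plates) were exposed to library compounds in DMSO for 48 h at 37°C at 11 threefold doses, 47 μM to 0.79 nM. Luminescence by CellTiter-Glo One was normalised per plate to DMSO and cell-free wells, then fitted with a four-parameter log-logistic curve on log10 dose. Curves above full viability were scaled and quality-control failures removed before area under the curve was integrated by trapezoidal rule.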

P12-Ichikawa = experiment: as above
Summary of the method: as §1

SEM cells [2] = experiment: as above
Summary of the method: as §1

[3] = RPMI 5 mM glucose + 10% dialyzed FBS

COc1ccc(CCN2CCN(CCCc3ccccc3)CC2)cc1OC gave a cell viability (SEM cells [1]; HPLM + 10% dialyzed FBS, 0.000781 µM) of 100%, a cell viability (SEM cells [1]; HPLM + 10% dialyzed FBS, 0.00234 µM) of 115% and a cell viability (SEM cells [1]; HPLM + 10% dialyzed FBS, 0.00702 µM) of 117%. The cell viability (SEM cells [1]; HPLM + 10% dialyzed FBS, 0.0211 µM) was 133%, the cell viability (SEM cells [1]; HPLM + 10% dialyzed FBS, 0.0632 µM) was 133% and the cell viability (SEM cells [1]; HPLM + 10% dialyzed FBS, 0.19 µM) was 138%. It also gave a cell viability (SEM cells [1]; HPLM + 10% dialyzed FBS, 0.569 µM) of 134%, a cell viability (SEM cells [1]; HPLM + 10% dialyzed FBS, 1.71 µM) of 126% and a cell viability (SEM cells [1]; HPLM + 10% dialyzed FBS, 5.12 µM) of 125%. It also gave a cell viability (SEM cells [1]; HPLM + 10% dialyzed FBS, 15.4 µM) of 127%, a cell viability (SEM cells [1]; HPLM + 10% dialyzed FBS, 46.1 µM) of 127% and a cell viability (SEM cells [1]; RPMI 5 mM glucose + 10% FBS, 0.000781 µM) of 108%. It also gave a cell viability (SEM cells [1]; RPMI 5 mM glucose + 10% FBS, 0.00234 µM) of 125%, a cell viability (SEM cells [1]; RPMI 5 mM glucose + 10% FBS, 0.00702 µM) of 112% and a cell viability (SEM cells [1]; RPMI 5 mM glucose + 10% FBS, 0.0211 µM) of 124%. The cell viability (SEM cells [1]; RPMI 5 mM glucose + 10% FBS, 0.0632 µM) was 133%, the cell viability (SEM cells [1]; RPMI 5 mM glucose + 10% FBS, 0.19 µM) was 132% and the cell viability (SEM cells [1]; RPMI 5 mM glucose + 10% FBS, 0.569 µM) was 127%. The cell viability (SEM cells [1]; RPMI 5 mM glucose + 10% FBS, 1.71 µM) was 129%, the cell viability (SEM cells [1]; RPMI 5 mM glucose + 10% FBS, 5.12 µM) was 133% and the cell viability (SEM cells [1]; RPMI 5 mM glucose + 10% FBS, 15.4 µM) was 125%. The cell viability (SEM cells [1]; RPMI 5 mM glucose + 10% FBS, 46.1 µM) was 109%, the cell viability (SEM cells [1]; RPMI 5 mM glucose + 10% dialyzed FBS, 0.000781 µM) was 115% and the cell viability (SEM cells [1]; RPMI 5 mM glucose + 10% dialyzed FBS, 0.00234 µM) was 113%. The cell viability (SEM cells [1]; RPMI 5 mM glucose + 10% dialyzed FBS, 0.00702 µM) was 132%, the cell viability (SEM cells [1]; RPMI 5 mM glucose + 10% dialyzed FBS, 0.0211 µM) was 134% and the cell viability (SEM cells [1]; RPMI 5 mM glucose + 10% dialyzed FBS, 0.0632 µM) was 141%. It also gave a cell viability (SEM cells [1]; RPMI 5 mM glucose + 10% dialyzed FBS, 0.19 µM) of 162%, a cell viability (SEM cells [1]; RPMI 5 mM glucose + 10% dialyzed FBS, 0.569 µM) of 150% and a cell viability (SEM cells [1]; RPMI 5 mM glucose + 10% dialyzed FBS, 1.71 µM) of 148%. It also gave a cell viability (SEM cells [1]; RPMI 5 mM glucose + 10% dialyzed FBS, 5.12 µM) of 141%, a cell viability (SEM cells [1]; RPMI 5 mM glucose + 10% dialyzed FBS, 15.4 µM) of 139% and a cell viability (SEM cells [1]; RPMI 5 mM glucose + 10% dialyzed FBS, 46.1 µM) of 122%. The “AUC of viability dose-response curve” value (NOMO1; HPLM + 10% dialyzed FBS) was 459, the “AUC of viability dose-response curve” value (NOMO1; RPMI 5 mM glucose + 10% FBS) was 444 and the “AUC of viability dose-response curve” value (NOMO1; [3]) was 439. The “AUC of viability dose-response curve” value (P12-Ichikawa; HPLM + 10% dialyzed FBS) was 466, the “AUC of viability dose-response curve” value (P12-Ichikawa; RPMI 5 mM glucose + 10% FBS) was 472 and the “AUC of viability dose-response curve” value (P12-Ichikawa; [3]) was 473. For the same molecule, the “AUC of viability dose-response curve” value (SEM cells [2]; HPLM + 10% dialyzed FBS) was 461, the “AUC of viability dose-response curve” value (SEM cells [2]; RPMI 5 mM glucose + 10% FBS) was 465 and the “AUC of viability dose-response curve” value (SEM cells [2]; [3]) was 457.

For O=C(NOC[C@H](O)CO)c1ccc(F)c(F)c1Nc1ccc(I)cc1F, the “AUC of viability dose-response curve” value (NOMO1; HPLM + 10% dialyzed FBS) was 261, the “AUC of viability dose-response curve” value (NOMO1; RPMI 5 mM glucose + 10% FBS) was 274 and the “AUC of viability dose-response curve” value (NOMO1; [3]) was 260. The “AUC of viability dose-response curve” value (P12-Ichikawa; HPLM + 10% dialyzed FBS) was 434, the “AUC of viability dose-response curve” value (P12-Ichikawa; RPMI 5 mM glucose + 10% FBS) was 384 and the “AUC of viability dose-response curve” value (P12-Ichikawa; [3]) was 445. The “AUC of viability dose-response curve” value (SEM cells [2]; HPLM + 10% dialyzed FBS) was 354, the “AUC of viability dose-response curve” value (SEM cells [2]; RPMI 5 mM glucose + 10% FBS) was 362 and the “AUC of viability dose-response curve” value (SEM cells [2]; [3]) was 347.

With C[C@H]1O[C@H](O[C@H]2[C@H](O)[C@@H](O)[C@H](O[C@@H]2CO)O[C@H]3[C@H](O)[C@@H](O)C(O)O[C@@H]3CO)[C@H](O)[C@@H](O)[C@@H]1N[C@H]4\C=C(CO)/[C@@H](O)[C@H](O)[C@H]4O (stereo not given in full) the “AUC of viability dose-response curve” value (NOMO1; HPLM + 10% dialyzed FBS) was 330, the “AUC of viability dose-response curve” value (NOMO1; RPMI 5 mM glucose + 10% FBS) was 309 and the “AUC of viability dose-response curve” value (NOMO1; [3]) was 319. The “AUC of viability dose-response curve” value (P12-Ichikawa; HPLM + 10% dialyzed FBS) was 321, the “AUC of viability dose-response curve” value (P12-Ichikawa; RPMI 5 mM glucose + 10% FBS) was 335 and the “AUC of viability dose-response curve” value (P12-Ichikawa; [3]) was 374. The “AUC of viability dose-response curve” value (SEM cells [2]; HPLM + 10% dialyzed FBS) was 437, the “AUC of viability dose-response curve” value (SEM cells [2]; RPMI 5 mM glucose + 10% FBS) was 456 and the “AUC of viability dose-response curve” value (SEM cells [2]; [3]) was 432.
